Measurements as given in patent publication US9108944B2, “Androgen receptor modulators and uses thereof” (ARAGON PHARMACEUTICALS, INC., priority 2010, dated 2015).

Key:
[1] = target: T1, AR-VP16 (Homo sapiens, UniProt P10275); assay: AR-VP16 DNA Binding Assay, antagonist mode (HepG2 cells, 0.1 nM R1881); type: cell-based
T1 sequence (P10275 560-920 limits assumed): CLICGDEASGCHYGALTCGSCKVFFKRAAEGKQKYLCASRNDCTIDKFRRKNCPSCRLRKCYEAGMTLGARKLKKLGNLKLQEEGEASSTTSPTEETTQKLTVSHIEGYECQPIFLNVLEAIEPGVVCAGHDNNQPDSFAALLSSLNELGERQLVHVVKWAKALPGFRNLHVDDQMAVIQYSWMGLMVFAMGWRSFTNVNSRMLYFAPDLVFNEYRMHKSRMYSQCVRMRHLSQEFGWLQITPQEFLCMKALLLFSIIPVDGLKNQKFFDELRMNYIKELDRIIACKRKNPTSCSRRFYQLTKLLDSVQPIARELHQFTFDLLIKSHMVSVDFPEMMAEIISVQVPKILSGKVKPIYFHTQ
Procedure, shortened: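 Transfected HepG2 cells expressing AR-VP16 received serially diluted compound in charcoal-stripped-serum RPMI the day after transfection, with 0.1 nM R1881 (final) added only for antagonist testing. After 48 h, cells were lysed for measurement.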

[2] = target: T1, AR-VP16; assay: AR-VP16 DNA Binding Assay, agonist mode (HepG2 cells); type: cell-based; details: Emax >20x DMSO control = agonist

SMILES | IC50 [1] | ARVP16 DNA Binding Assay (Agonist mode): Agonist? [2]
O=C1N(c2ccc3nnc(C(F)(F)F)n3n2)C(=S)N(c2ccc(O)cc2)C12CCC2 [Compound 2, 5-(4-Hydroxyphenyl)-6-thioxo-7-(3-(trifluoromethyl)-[1,2,4]triazolo[4,3-b]pyridazin-6-yl)-5,7-diazaspiro[3.4]octan-8-one] | > 1000 nM | No (Agonist defined as a compound whose Emax in the ARVP16 DNA Binding Assay (Agonist mode) is >20x DMSO control)
CCOC(=O)c1ccc(N2C(=S)N(c3cnc(C#N)c(C(F)(F)F)c3)C(=O)C23CCC3)cc1F [Compound 3, Ethyl 4-(7-(6-cyano-5-(trifluoromethyl)pyridin-3-yl)-8-oxo-6-thioxo-5,7-diazaspiro[3.4]octan-5-yl)-2-fluorobenzoate] | > 1000 nM | No (Agonist defined as a compound whose Emax in the ARVP16 DNA Binding Assay (Agonist mode) is >20x DMSO control)
CNC(=O)c1ccc(N2C(=S)N(c3cnc(C#N)c(C)c3)C(=O)C23CCC3)cc1F [Compound 5, 4-(7-(6-Cyano-5-methylpyridin-3-yl)-8-oxo-6-thioxo-5,7-diazaspiro[3.4]octan-5-yl)-2-fluoro-N-methylbenzamide] | < 1000 nM | No (Agonist defined as a compound whose Emax in the ARVP16 DNA Binding Assay (Agonist mode) is >20x DMSO control)
CNC(=O)c1ccc(N2C(=S)N(c3cnc(C#N)c(C)c3)C(=O)C23CCCC3)cc1F [Compound 6, 4-(3-(6-Cyano-5-methylpyridin-3-yl)-4-oxo-2-thioxo-1,3-diazaspiro[4.4]nonan-1-yl)-2-fluoro-N-methylbenzamide] | < 1000 nM | No (Agonist defined as a compound whose Emax in the ARVP16 DNA Binding Assay (Agonist mode) is >20x DMSO control)
Cc1ccc(-c2ccc(N3C(=S)N(c4cnc(C#N)c(C)c4)C(=O)C34CCC4)cc2)o1 [Compound 7, 3-Methyl-5-(5-(4-(5-methylfuran-2-yl)phenyl)-8-oxo-6-thioxo-5,7-diazaspiro[3.4]octan-7-yl)picolinonitrile] | < 1000 nM | No (Agonist defined as a compound whose Emax in the ARVP16 DNA Binding Assay (Agonist mode) is >20x DMSO control)
CCOC(=O)c1cc(N2C(=S)N(c3cnc(C#N)c(C(F)(F)F)c3)C(=O)C23CCC3)ccc1F [Compound 8, Ethyl 5-(7-(6-cyano-5-(trifluoromethyl)pyridin-3-yl)-8-oxo-6-thioxo-5,7-diazaspiro[3.4]octan-5-yl)-2-fluorobenzoate] | > 1000 nM | No (Agonist defined as a compound whose Emax in the ARVP16 DNA Binding Assay (Agonist mode) is >20x DMSO control)
N#Cc1ccccc1N1C(=S)N(c2cnc(C#N)c(C(F)(F)F)c2)C(=O)C12CCC2 [Compound 10, 5-(5-(2-Cyanophenyl)-8-oxo-6-thioxo-5,7-diazaspiro[3.4]octan-7-yl)-3-(trifluoromethyl)picolinonitrile] | > 1000 nM | No (Agonist defined as a compound whose Emax in the ARVP16 DNA Binding Assay (Agonist mode) is >20x DMSO control)
N#Cc1cccc(N2C(=S)N(c3cnc(C#N)c(C(F)(F)F)c3)C(=O)C23CCC3)c1 [Compound 11, 5-(5-(3-Cyanophenyl)-8-oxo-6-thioxo-5,7-diazaspiro[3.4]octan-7-yl)-3-(trifluoromethyl)picolinonitrile] | < 1000 nM | No (Agonist defined as a compound whose Emax in the ARVP16 DNA Binding Assay (Agonist mode) is >20x DMSO control)
N#Cc1ccc(N2C(=S)N(c3cnc(C#N)c(C(F)(F)F)c3)C(=O)C23CCC3)cc1 [Compound 12, 5-(5-(4-Cyanophenyl)-8-oxo-6-thioxo-5,7-diazaspiro[3.4]octan-7-yl)-3-(trifluoromethyl)picolinonitrile] | < 1000 nM | No (Agonist defined as a compound whose Emax in the ARVP16 DNA Binding Assay (Agonist mode) is >20x DMSO control)
N#Cc1ncc(N2C(=O)C3(CCC3)N(c3cccc(-c4ccccc4)c3)C2=S)cc1C(F)(F)F [Compound 14, 5-(5-([1,1′-Biphenyl]-3-yl)-8-oxo-6-thioxo-5,7-diazaspiro[3.4]octan-7-yl)-3-(trifluoromethyl)picolinonitrile] | > 1000 nM | No (Agonist defined as a compound whose Emax in the ARVP16 DNA Binding Assay (Agonist mode) is >20x DMSO control)
N#Cc1ncc(N2C(=O)C3(CCC3)N(c3ccccc3-c3ccccc3)C2=S)cc1C(F)(F)F [Compound 15, 5-(5-([1,1′-Biphenyl]-2-yl)-8-oxo-6-thioxo-5,7-diazaspiro[3.4]octan-7-yl)-3-(trifluoromethyl)picolinonitrile] | > 1000 nM | No (Agonist defined as a compound whose Emax in the ARVP16 DNA Binding Assay (Agonist mode) is >20x DMSO control)
N#Cc1ncc(N2C(=O)C3(CCC3)N(c3ccc(-c4ccccn4)cc3)C2=S)cc1C(F)(F)F [Compound 16, 5-(8-Oxo-5-(4-(pyridin-2-yl)phenyl)-6-thioxo-5,7-diazaspiro[3.4]octan-7-yl)-3-(trifluoromethyl)picolinonitrile] | < 1000 nM | No (Agonist defined as a compound whose Emax in the ARVP16 DNA Binding Assay (Agonist mode) is >20x DMSO control)
N#Cc1ncc(N2C(=O)C3(CCC3)N(c3ccc(-c4ccncc4)cc3)C2=S)cc1C(F)(F)F [Compound 18, 5-(8-Oxo-5-(4-(pyridin-4-yl)phenyl)-6-thioxo-5,7-diazaspiro[3.4]octan-7-yl)-3-(trifluoromethyl)picolinonitrile] | < 1000 nM | Yes (Agonist defined as a compound whose Emax in the ARVP16 DNA Binding Assay (Agonist mode) is >20x DMSO control)
Cc1ccccc1N1C(=S)N(c2cnc(C#N)c(C(F)(F)F)c2)C(=O)C12CCC2 [Compound 20, 5-(8-Oxo-6-thioxo-5-(o-tolyl)-5,7-diazaspiro[3.4]octan-7-yl)-3-(trifluoromethyl)picolinonitrile] | < 1000 nM | No (Agonist defined as a compound whose Emax in the ARVP16 DNA Binding Assay (Agonist mode) is >20x DMSO control)
Cc1ccc(N2C(=S)N(c3cnc(C#N)c(C(F)(F)F)c3)C(=O)C23CCC3)cc1 [Compound 22, 5-(8-Oxo-6-thioxo-5-(p-tolyl)-5,7-diazaspiro[3.4]octan-7-yl)-3-(trifluoromethyl)picolinonitrile] | < 1000 nM | No (Agonist defined as a compound whose Emax in the ARVP16 DNA Binding Assay (Agonist mode) is >20x DMSO control)
N#Cc1ncc(N2C(=O)C3(CCC3)N(c3ccccc3Oc3ccccc3)C2=S)cc1C(F)(F)F [Compound 23, 5-(8-Oxo-5-(2-phenoxyphenyl)-6-thioxo-5,7-diazaspiro[3.4]octan-7-yl)-3-(trifluoromethyl)picolinonitrile] | > 1000 nM | No (Agonist defined as a compound whose Emax in the ARVP16 DNA Binding Assay (Agonist mode) is >20x DMSO control)
N#Cc1ncc(N2C(=O)C3(CCC3)N(c3cccc(Oc4ccccc4)c3)C2=S)cc1C(F)(F)F [Compound 24, 5-(8-Oxo-5-(3-phenoxyphenyl)-6-thioxo-5,7-diazaspiro[3.4]octan-7-yl)-3-(trifluoromethyl)picolinonitrile] | > 1000 nM | No (Agonist defined as a compound whose Emax in the ARVP16 DNA Binding Assay (Agonist mode) is >20x DMSO control)
N#Cc1ncc(N2C(=O)C3(CCC3)N(c3ccc(Oc4ccccc4)cc3)C2=S)cc1C(F)(F)F [Compound 25, 5-(8-Oxo-5-(4-phenoxyphenyl)-6-thioxo-5,7-diazaspiro[3.4]octan-7-yl)-3-(trifluoromethyl)picolinonitrile] | < 1000 nM | No (Agonist defined as a compound whose Emax in the ARVP16 DNA Binding Assay (Agonist mode) is >20x DMSO control)
N#Cc1ncc(N2C(=O)C3(CCC3)N(c3ccccc3F)C2=S)cc1C(F)(F)F [Compound 26, 5-(5-(2-Fluorophenyl)-8-oxo-6-thioxo-5,7-diazaspiro[3.4]octan-7-yl)-3-(trifluoromethyl)picolinonitrile] | < 1000 nM | Yes (Agonist defined as a compound whose Emax in the ARVP16 DNA Binding Assay (Agonist mode) is >20x DMSO control)
N#Cc1ncc(N2C(=O)C3(CCC3)N(c3cccc(F)c3)C2=S)cc1C(F)(F)F [Compound 27, 5-(5-(3-Fluorophenyl)-8-oxo-6-thioxo-5,7-diazaspiro[3.4]octan-7-yl)-3-(trifluoromethyl)picolinonitrile] | < 1000 nM | No (Agonist defined as a compound whose Emax in the ARVP16 DNA Binding Assay (Agonist mode) is >20x DMSO control)
N#Cc1ncc(N2C(=O)C3(CCC3)N(c3ccc(F)cc3)C2=S)cc1C(F)(F)F [Compound 28, 5-(5-(4-Fluorophenyl)-8-oxo-6-thioxo-5,7-diazaspiro[3.4]octan-7-yl)-3-(trifluoromethyl)picolinonitrile] | < 1000 nM | No (Agonist defined as a compound whose Emax in the ARVP16 DNA Binding Assay (Agonist mode) is >20x DMSO control)
COc1cc(F)ccc1N1C(=S)N(c2cnc(C#N)c(C(F)(F)F)c2)C(=O)C12CCC2 [Compound 29, 5-(5-(4-Fluoro-2-methoxyphenyl)-8-oxo-6-thioxo-5,7-diazaspiro[3.4]octan-7-yl)-3-(trifluoromethyl)picolinonitrile] | < 1000 nM | No (Agonist defined as a compound whose Emax in the ARVP16 DNA Binding Assay (Agonist mode) is >20x DMSO control)
